Laboratory results reported in ChEMBL document CHEMBL5442219.

Tests used:
Details in all cases: Compound concentration 10 µM
[1] = biological target: T1, Muscarinic acetylcholine receptor M2 (Homo sapiens) (UniProt P08172)
T1 sequence (whole entry): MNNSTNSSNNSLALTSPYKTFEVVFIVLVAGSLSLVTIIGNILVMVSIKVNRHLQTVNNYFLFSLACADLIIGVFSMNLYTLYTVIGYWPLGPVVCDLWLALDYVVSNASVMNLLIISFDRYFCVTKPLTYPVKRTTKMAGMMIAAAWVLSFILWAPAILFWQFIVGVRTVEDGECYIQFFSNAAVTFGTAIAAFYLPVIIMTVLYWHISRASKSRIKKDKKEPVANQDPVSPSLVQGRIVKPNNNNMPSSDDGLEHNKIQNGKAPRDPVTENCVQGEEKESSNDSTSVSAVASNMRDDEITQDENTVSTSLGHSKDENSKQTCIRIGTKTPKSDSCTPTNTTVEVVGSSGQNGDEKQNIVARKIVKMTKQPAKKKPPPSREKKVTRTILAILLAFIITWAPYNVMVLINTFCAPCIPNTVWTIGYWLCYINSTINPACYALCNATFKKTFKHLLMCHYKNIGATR
Description: PDSP Primary Binding target: CHRM2 - Compounds are tested at 10 uM concentration, plate are incubated at room temperature in the dark for 90 minutes. Reaction are stopped by vacuum filtration onto 0.3% polyethyleneimine soaked filter mats using Filtermate harvester. Scintilation cocktail is then melted onto microwave-dried filters on a hot plate and the radio activity is counted in Microbia counter.

[2] = biological target: T2, Muscarinic acetylcholine receptor M4 (Homo sapiens) (UniProt P08173)
T2 sequence (whole entry): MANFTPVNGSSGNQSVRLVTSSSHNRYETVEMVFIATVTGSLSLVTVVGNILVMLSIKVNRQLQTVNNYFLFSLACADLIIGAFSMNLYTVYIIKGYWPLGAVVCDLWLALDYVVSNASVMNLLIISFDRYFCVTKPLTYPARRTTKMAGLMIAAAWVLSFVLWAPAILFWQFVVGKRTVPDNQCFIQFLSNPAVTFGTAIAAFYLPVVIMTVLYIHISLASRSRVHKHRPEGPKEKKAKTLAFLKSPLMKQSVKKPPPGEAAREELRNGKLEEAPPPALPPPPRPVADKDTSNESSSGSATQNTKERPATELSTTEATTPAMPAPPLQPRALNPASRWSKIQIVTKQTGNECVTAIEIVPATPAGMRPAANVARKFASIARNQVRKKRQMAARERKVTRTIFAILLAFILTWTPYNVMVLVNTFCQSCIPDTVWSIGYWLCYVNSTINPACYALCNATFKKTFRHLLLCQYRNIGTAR
Description: PDSP Primary Binding target: CHRM4 - Compounds are tested at 10 uM concentration, plate are incubated at room temperature in the dark for 90 minutes. Reaction are stopped by vacuum filtration onto 0.3% polyethyleneimine soaked filter mats using Filtermate harvester. Scintilation cocktail is then melted onto microwave-dried filters on a hot plate and the radio activity is counted in Microbia counter.

[3] = biological target: T3, Muscarinic acetylcholine receptor M5 (Homo sapiens) (UniProt P08912)
T3 sequence (whole entry): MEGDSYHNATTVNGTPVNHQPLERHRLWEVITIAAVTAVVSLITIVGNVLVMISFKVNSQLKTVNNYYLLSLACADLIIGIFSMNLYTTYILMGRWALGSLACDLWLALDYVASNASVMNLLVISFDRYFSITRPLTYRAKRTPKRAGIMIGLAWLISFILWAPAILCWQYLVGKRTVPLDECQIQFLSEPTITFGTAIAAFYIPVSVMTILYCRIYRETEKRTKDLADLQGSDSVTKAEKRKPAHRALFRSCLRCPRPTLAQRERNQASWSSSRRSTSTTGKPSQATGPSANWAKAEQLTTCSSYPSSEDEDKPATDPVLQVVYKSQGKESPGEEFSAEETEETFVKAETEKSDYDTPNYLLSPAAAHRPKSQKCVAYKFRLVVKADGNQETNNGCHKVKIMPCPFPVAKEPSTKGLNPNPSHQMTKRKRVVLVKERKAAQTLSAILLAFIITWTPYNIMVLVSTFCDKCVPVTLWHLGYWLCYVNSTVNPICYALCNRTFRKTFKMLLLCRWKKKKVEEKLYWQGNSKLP
Description: PDSP Primary Binding target: CHRM5 - Compounds are tested at 10 uM concentration, plate are incubated at room temperature in the dark for 90 minutes. Reaction are stopped by vacuum filtration onto 0.3% polyethyleneimine soaked filter mats using Filtermate harvester. Scintilation cocktail is then melted onto microwave-dried filters on a hot plate and the radio activity is counted in Microbia counter.

[4] = biological target: D(3) dopamine receptor (Homo sapiens) (UniProt P35462)
Description: PDSP Primary Binding target: DRD3 - Compounds are tested at 10 uM concentration, plate are incubated at room temperature in the dark for 90 minutes. Reaction are stopped by vacuum filtration onto 0.3% polyethyleneimine soaked filter mats using Filtermate harvester. Scintilation cocktail is then melted onto microwave-dried filters on a hot plate and the radio activity is counted in Microbia counter.

[5] = biological target: Mu-type opioid receptor (Homo sapiens) (UniProt P35372)
Description: PDSP Primary Binding target: OPRM1 - Compounds are tested at 10 uM concentration, plate are incubated at room temperature in the dark for 90 minutes. Reaction are stopped by vacuum filtration onto 0.3% polyethyleneimine soaked filter mats using Filtermate harvester. Scintilation cocktail is then melted onto microwave-dried filters on a hot plate and the radio activity is counted in Microbia counter.

[6] = biological target: Sodium-dependent noradrenaline transporter (Homo sapiens) (UniProt P23975)
Description: PDSP Primary Binding target: SLC6A2 - Compounds are tested at 10 uM concentration, plate are incubated at room temperature in the dark for 90 minutes. Reaction are stopped by vacuum filtration onto 0.3% polyethyleneimine soaked filter mats using Filtermate harvester. Scintilation cocktail is then melted onto microwave-dried filters on a hot plate and the radio activity is counted in Microbia counter.

[7] = biological target: T4, Alpha-2B adrenergic receptor (Homo sapiens) (UniProt P18089)
T4 sequence (whole entry): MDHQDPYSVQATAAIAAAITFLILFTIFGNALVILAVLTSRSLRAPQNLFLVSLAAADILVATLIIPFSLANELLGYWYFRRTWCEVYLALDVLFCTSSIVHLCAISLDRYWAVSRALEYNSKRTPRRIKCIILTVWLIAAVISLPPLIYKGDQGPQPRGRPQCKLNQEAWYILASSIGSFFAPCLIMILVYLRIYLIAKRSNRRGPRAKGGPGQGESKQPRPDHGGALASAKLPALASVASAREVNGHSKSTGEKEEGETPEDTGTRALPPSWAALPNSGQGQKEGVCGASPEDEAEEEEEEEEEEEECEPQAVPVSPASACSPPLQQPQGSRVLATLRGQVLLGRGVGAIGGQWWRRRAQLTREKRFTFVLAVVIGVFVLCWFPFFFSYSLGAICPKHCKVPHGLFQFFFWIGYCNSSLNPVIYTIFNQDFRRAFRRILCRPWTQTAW
Description: PDSP Primary Binding target: ADRA2B - Compounds are tested at 10 uM concentration, plate are incubated at room temperature in the dark for 90 minutes. Reaction are stopped by vacuum filtration onto 0.3% polyethyleneimine soaked filter mats using Filtermate harvester. Scintilation cocktail is then melted onto microwave-dried filters on a hot plate and the radio activity is counted in Microbia counter.

[8] = biological target: T5, D(4) dopamine receptor (Homo sapiens) (UniProt P21917)
T5 sequence (whole entry): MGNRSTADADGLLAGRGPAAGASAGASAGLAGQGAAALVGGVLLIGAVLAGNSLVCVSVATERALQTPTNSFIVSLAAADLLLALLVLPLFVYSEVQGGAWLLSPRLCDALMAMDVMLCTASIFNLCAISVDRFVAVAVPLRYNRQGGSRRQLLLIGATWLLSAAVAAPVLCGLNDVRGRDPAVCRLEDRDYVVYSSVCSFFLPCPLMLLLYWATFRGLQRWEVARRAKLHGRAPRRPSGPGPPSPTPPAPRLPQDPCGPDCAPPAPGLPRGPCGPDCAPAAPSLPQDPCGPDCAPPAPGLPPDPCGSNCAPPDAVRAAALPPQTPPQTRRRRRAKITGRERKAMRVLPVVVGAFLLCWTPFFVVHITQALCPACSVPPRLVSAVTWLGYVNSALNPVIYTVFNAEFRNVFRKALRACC
Description: PDSP Primary Binding target: DRD4 - Compounds are tested at 10 uM concentration, plate are incubated at room temperature in the dark for 90 minutes. Reaction are stopped by vacuum filtration onto 0.3% polyethyleneimine soaked filter mats using Filtermate harvester. Scintilation cocktail is then melted onto microwave-dried filters on a hot plate and the radio activity is counted in Microbia counter.

[9] = biological target: Beta-1 adrenergic receptor (Homo sapiens) (UniProt P08588)
Beta-1 adrenergic receptor (Homo sapiens), sequence (P08588 whole entry, looked up): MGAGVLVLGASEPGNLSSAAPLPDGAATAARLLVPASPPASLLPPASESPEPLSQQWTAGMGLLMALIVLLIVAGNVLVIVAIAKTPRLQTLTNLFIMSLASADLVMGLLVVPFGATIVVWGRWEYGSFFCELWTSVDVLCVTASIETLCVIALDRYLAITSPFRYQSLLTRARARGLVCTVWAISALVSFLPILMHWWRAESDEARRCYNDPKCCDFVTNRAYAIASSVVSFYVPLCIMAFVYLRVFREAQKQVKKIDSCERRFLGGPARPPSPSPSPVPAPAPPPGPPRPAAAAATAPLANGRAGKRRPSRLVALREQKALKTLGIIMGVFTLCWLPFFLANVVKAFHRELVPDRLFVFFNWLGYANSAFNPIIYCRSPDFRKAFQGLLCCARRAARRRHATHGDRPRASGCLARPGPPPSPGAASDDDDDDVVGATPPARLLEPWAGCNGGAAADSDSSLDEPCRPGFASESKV
Description: PDSP Primary Binding target: ADRB1 - Compounds are tested at 10 uM concentration, plate are incubated at room temperature in the dark for 90 minutes. Reaction are stopped by vacuum filtration onto 0.3% polyethyleneimine soaked filter mats using Filtermate harvester. Scintilation cocktail is then melted onto microwave-dried filters on a hot plate and the radio activity is counted in Microbia counter.

Sodium-dependent noradrenaline transporter (Homo sapiens), sequence (P23975 whole entry): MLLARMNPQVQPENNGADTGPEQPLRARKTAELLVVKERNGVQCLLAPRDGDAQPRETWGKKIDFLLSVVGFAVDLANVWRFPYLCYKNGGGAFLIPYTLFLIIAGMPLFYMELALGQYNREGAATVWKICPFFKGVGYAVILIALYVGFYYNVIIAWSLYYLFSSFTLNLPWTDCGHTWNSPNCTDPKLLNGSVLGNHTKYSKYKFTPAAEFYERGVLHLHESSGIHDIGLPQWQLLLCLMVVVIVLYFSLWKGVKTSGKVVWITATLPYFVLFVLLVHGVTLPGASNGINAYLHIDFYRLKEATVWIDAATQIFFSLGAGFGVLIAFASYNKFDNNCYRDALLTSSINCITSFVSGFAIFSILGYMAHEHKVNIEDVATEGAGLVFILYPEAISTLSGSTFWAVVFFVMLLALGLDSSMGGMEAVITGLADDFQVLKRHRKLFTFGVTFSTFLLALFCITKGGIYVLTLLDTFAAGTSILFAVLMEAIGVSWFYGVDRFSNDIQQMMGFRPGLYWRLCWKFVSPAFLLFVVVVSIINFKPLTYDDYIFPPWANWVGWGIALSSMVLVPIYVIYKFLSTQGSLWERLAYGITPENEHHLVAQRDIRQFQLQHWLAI
D(3) dopamine receptor (Homo sapiens), sequence (P35462 whole entry): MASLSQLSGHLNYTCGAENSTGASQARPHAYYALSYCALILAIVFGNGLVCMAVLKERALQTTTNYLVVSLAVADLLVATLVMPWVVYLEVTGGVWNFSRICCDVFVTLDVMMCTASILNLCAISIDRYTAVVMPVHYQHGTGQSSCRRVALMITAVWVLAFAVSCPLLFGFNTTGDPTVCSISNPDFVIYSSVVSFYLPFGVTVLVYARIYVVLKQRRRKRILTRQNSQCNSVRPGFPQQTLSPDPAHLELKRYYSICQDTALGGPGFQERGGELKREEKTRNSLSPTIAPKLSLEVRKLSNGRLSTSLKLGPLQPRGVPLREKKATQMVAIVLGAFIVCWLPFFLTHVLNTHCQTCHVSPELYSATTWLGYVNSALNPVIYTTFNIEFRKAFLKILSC
Mu-type opioid receptor (Homo sapiens), sequence (P35372 whole entry): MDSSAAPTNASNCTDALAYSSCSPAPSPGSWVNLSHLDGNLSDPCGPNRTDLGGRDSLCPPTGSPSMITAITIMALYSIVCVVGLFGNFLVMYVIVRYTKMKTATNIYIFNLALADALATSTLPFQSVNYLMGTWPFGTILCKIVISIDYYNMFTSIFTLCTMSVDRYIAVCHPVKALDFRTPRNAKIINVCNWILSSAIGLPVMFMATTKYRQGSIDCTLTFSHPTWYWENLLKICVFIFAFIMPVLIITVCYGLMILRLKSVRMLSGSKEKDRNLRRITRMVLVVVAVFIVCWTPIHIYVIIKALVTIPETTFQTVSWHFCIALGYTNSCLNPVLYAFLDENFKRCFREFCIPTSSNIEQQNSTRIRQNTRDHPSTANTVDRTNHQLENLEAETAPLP

Row | SMILES | inhibition [1] | inhibition [2] | inhibition [3] | inhibition [4] | inhibition [5] | inhibition [6] | inhibition [7] | inhibition [8] | inhibition [9]
1 | CCCNS(=O)(=O)Nc1ncnc(OCCOc2ncc(Br)cn2)c1-c1ccc(Br)cc1 | -6.56% | 6.06% | 11.6% | 54.8% | 30.6% | 53.5% |  |  | 
2 | Cc1cn2cc(CC(=O)N3CCC4(CC3)CN(Cc3ccc(-n5nccn5)cc3Cl)C4)nc2s1 | 68.5% | 87.5% | 71.8% | 71.1% | 21.4% | 44.3% | 11% | 50.6% | 
3 | NC[C@H](O)c1ccc(O)c(O)c1 | -6.81% |  |  | 57.9% |  | 15.2% | 90.6% | 46.9% | 66.2%
4 | CC(C)Oc1ccccc1C(=O)Nc1ccccc1C(=O)Nc1cccc(S(=O)(=O)C(F)(F)F)c1 | -6.99% | -2.68% | -4.83% | 23.1% | -7.51% |  |  | 43% | 
5 | COc1ccccc1N1CCN(CCCCNC(=O)c2ccc3ccccc3c2)CC1 | 7.22% | 0.77% | 23.2% |  | 79.8% | 68.2% | 99.5% | 95.1% | 
6 | CNc1nc(NCc2ccc(NS(C)(=O)=O)cc2Cl)cc(-c2ccccn2)n1 | -5.61% | 9.44% | 6.84% | 56.5% | 14.5% | 24% | 24.4% | 2.1% | 
7 | CN1CCCC(n2nc(Cc3ccc(Cl)cc3)c3ccccc3c2=O)CC1 (configuration not stated) | 36.1% | 83.7% | 43.1% | 83.9% | 29.4% | 31.6% | 79.1% | 85.5% | 
8 | O=C(O)C1CN(Cc2ccc(-c3nc4cc(Cc5ccccc5F)ccc4s3)c(F)c2)C1 | -8.59% |  |  | 91% | -9.83% | 20.8% |  | -6.1% | 22.9%
9 | O=C(O)CC1CCC2(CC1)CCN(c1cc(OC(F)(F)F)ccc1Cl)CC2 | 27.1% | 7.8% | -6.92% | 65.5% | 34.3% | 13.3% |  |  | 
10 | CC(C)NC(=O)c1ccc(C#Cc2ccncc2)cn1 | 53.1% | 30.9% | 43.2% | 26.8% | 0.15% |  | -0.82% |  | 
11 | Cc1cc([C@@H](C)Nc2cccc(-c3cc(C)c(C(=O)N[C@@H](C)C(=O)O)c(C)c3)c2)ccc1Cl | 2.88% | 7.41% |  | 58.6% | 16.5% | 14.9% | 24.6% | 31.4% | 
12 | O=C(O)Cn1c(C(=O)Nc2nc(-c3ccccc3Cl)cs2)cc2ccccc21 | 0.82% |  |  | 7.11% | 8.9% |  | 2.63% | -9.74% | 30.9%
13 | CN1CCC(=C2c3ccccc3CC(=O)c3sccc32)CC1 | 75.2% | 64.6% | 93.2% | 80.2% | 15.9% | 45.1% |  | 25.6% | 
14 | NCCc1c[nH]c2ccc(C(N)=O)cc12 | 7.09% | -6.09% | 8.53% | 7.17% | 28.8% | 63.2% | 24.8% | 8.02% | 
15 | CCOC(=O)c1cc(C#N)c(N2CCC(C(=O)NS(=O)(=O)Cc3ccccc3)CC2)nc1C | 68.1% | 18.3% | 28.6% | 50.8% | 4.87% |  | -7.37% | 7.97% | 
16 | Clc1ccc(CCCOCCCN2CCCCC2)cc1 | 34.5% | 76.8% | 23.1% | 47.4% | 3.99% | 64.5% | 1.88% | 21.5% | 
17 | N#Cc1c(O)nc(SCc2cccc(F)c2F)nc1C1CC1 | 28.1% |  |  | 2.3% |  | -1.64% | -6.93% | -4.74% | 28.6%
18 | O=C1O[C@]2(CC[C@H](C(=O)Nc3ccn(-c4ccccc4F)n3)CC2)c2cnccc21 | -5.81% |  | -6.98% | 73.2% | 4.44% |  |  |  | 
19 | OCc1cc(C(O)CNCCCCCCOCCCCc2ccccc2)ccc1O (configuration not stated) | 3.27% |  | 60.2% | 59.6% | 6.99% | 98.7% | 74.1% | 57.4% | 
20 | COc1cccc(-c2c(C)n(Cc3c(F)cccc3C(F)(F)F)c(=O)n(C[C@H](NCCCC(=O)O)c3ccccc3)c2=O)c1F | 3.22% | 4.32% |  | 21.6% | 11.9% |  | -2.07% | 25.8% | 
21 | CCC[C@H](Oc1cc(C)c(-n2cc(C(F)(F)F)cn2)c(C)c1)c1ccc(C(=O)NCCC(=O)O)cc1 | -6.26% | 3.44% | 70.1% |  | 11% |  | -4.35% | -1.34% | 
22 | O=c1ccc2ccc(OCCCCN3CCN(c4cccc5sccc45)CC3)cc2[nH]1 | -3.44% | 30.5% | 38.2% | 100% | 26.8% | 96.6% | 94.3% | 101% | 
23 | CC1=C2C[C@H]3[C@@H](CC=C4C[C@@H](O)CC[C@@]43C)[C@@H]2CC[C@]12O[C@@H]1C[C@H](C)CN[C@H]1[C@H]2C | -1.88% | -3.11% |  | 19.6% | 10.4% |  |  |  | -3.27%
